Laboratory results: US8318781B2, “G-protein-conjugated receptor agonist” (Japan Science and Technology Agency, priority 2007, dated 2012)

Tests used:
human GPR40 (hGPR40) = target: T1, human GPR40 (hGPR40) (Homo sapiens, UniProt O14842); experiment: Determination of intracellular Ca2+ concentration (FLIPR), cell line TXGPR40; format: cell-based; conditions: for EC50 / [Ca^2+]/GPR40 10 μM (ratio vs. LA): TXGPR40 cells; for EC50: maximum fluorescence intensity vs ligand concentration, read-out: [Ca^2+]/GPR40 pEC50 (converted); for agonistic activity for GPR40 (in words): cells in which GPR40 has been transgenically expressed; for [Ca^2+]/GPR40 10 μM (ratio vs. LA): relative fluorescence intensity vs LA at 10 μM
T1 construct: expressed in transfected cells; doxycycline-inducible expression vector
T1 sequence (O14842 whole entry): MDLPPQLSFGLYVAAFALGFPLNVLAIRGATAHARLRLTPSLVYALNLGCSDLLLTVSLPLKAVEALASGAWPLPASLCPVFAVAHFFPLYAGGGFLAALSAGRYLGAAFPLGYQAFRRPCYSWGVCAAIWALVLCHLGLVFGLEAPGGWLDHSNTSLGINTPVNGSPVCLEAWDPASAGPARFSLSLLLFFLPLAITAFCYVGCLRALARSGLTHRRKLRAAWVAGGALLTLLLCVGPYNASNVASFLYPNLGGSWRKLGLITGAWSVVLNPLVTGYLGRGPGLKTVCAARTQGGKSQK

human GPR120 (hGPR120) = target: T2, human GPR120 (hGPR120) (Homo sapiens, UniProt Q5NUL3); experiment: Determination of intracellular Ca2+ concentration (FLIPR), cell line GPR120/Flp-in; format: cell-based; conditions: GPR120/Flp-in cells; for EC50: maximum fluorescence intensity vs ligand concentration, read-out: [Ca^2+]/GPR120/Flp-In pEC50 (converted); for [Ca^2+]/GPR120/Flp-In 10 μM (ratio vs. LA): relative fluorescence intensity vs LA at 10 μM
T2 construct: expressed in transfected cells; doxycycline-inducible expression vector
T2 sequence (Q5NUL3 1-361): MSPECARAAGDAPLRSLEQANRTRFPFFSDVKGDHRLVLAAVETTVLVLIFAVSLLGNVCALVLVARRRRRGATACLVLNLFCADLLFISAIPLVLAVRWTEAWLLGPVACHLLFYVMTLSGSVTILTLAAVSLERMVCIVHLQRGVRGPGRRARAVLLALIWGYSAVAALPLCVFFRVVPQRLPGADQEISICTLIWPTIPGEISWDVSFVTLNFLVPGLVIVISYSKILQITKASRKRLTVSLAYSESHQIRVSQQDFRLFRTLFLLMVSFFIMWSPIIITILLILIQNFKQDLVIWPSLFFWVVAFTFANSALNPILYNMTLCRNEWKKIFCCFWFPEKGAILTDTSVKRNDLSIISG

Row | EC50 (human GPR40 (hGPR40)) [µM] | agonistic activity for GPR40 (in words) (human GPR40 (hGPR40)) | [Ca^2+]/GPR40 10 μM (ratio vs. LA) (human GPR40 (hGPR40)) | EC50 (human GPR120 (hGPR120)) [µM] | [Ca^2+]/GPR120/Flp-In 10 μM (ratio vs. LA) (human GPR120 (hGPR120)) | SMILES
1 | 21.4 | showed a specific reactivity | 0.30 | 1.66 | 1.06 | O=C(O)CCCc1ccc(OCCN(c2ccccc2)c2nccs2)cc1 [NCG46]
2 | 24 | showed a specific reactivity | 0.07 | 2.4 | 0.92 | CN(C)c1ccc(N(CCOc2ccc(CCCC(=O)O)cc2)c2ccccn2)cc1 [NCG54]
